Measured values as given in ChEMBL document CHEMBL5727943, “Composition and methods for inhibiting mammalian sterile 20-like kinase 1” (2020).

Tests used:
[1] = molecular target: T1, Serine/threonine-protein kinase 3 (Homo sapiens, UniProt Q13188); assay: (§1) MST1/MST2 Biochemical LanthaScreen Eu Kinase Binding Assay: MST1 and MST2 biochemical LanthaScreen Eu Kinase Binding Assay was based on the binding and displacement of kinase tracer to the kinase of interest. Compounds in 1000×DMSO stock solution was dispensed using automated dispensing system (Labcyte) to 384 well Corning Microplate at 15 nL, 5 uL of Kinase buffer A was added to each well. Plates were shaken and incubated for 1 min to ensure well dissolution of compounds.
T1 sequence (Q13188 whole entry): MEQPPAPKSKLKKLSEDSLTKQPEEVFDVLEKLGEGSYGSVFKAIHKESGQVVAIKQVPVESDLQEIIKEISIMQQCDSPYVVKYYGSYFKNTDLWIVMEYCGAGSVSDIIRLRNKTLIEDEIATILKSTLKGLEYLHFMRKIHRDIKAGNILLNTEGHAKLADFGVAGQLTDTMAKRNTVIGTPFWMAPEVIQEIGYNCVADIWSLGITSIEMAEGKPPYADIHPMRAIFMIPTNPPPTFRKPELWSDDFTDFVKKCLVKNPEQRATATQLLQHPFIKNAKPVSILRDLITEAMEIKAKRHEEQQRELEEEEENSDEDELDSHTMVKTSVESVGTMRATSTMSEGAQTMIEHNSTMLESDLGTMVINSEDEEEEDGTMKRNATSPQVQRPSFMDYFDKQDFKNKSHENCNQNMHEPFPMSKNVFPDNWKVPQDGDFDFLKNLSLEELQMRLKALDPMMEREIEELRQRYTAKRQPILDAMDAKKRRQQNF

[2] = molecular target: T2, Serine/threonine-protein kinase 4 (Homo sapiens, UniProt Q13043); assay: as §1
T2 sequence (Q13043 whole entry): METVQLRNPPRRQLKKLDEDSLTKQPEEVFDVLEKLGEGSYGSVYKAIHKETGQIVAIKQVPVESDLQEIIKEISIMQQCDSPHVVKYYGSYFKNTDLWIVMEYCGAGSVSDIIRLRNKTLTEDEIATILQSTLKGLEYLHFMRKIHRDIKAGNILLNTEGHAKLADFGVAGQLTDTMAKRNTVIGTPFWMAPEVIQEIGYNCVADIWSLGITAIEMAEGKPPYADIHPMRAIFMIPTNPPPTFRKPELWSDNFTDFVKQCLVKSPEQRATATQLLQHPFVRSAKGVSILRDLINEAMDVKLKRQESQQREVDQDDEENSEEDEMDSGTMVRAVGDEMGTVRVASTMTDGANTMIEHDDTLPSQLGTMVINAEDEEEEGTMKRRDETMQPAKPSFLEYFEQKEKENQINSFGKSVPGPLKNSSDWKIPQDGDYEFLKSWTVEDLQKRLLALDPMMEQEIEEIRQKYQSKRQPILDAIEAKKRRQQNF

CCOc1cc2ncc(C#N)c(Nc3ccc(OCc4ncccc4C)cc3Cl)c2cc1NC(=O)/C=C/CN(C)C
IC50 [1]: < 100 nM | IC50 [2]: < 100 nM
